# Test results: PubChem BioAssay (NCI)
#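 Tested at 5 concentrations; 48 h exposure; 96-well plates; endpoints linearly interpolated, else capped at highest concentration. At the TGI there is no net growth.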
# Assays:
# Assay in all cases: NCI anticancer screen, dose series, 48 h
# HS 578T breast = system: HS 578T breast
# A549 NSCLC = system: A549 NSCLC
# SK-OV-3 ovarian = system: SK-OV-3 ovarian
# MCF7 breast = system: MCF7 breast
# OVCAR-8 ovarian = system: OVCAR-8 ovarian
# HL-60(TB) leukemia = system: HL-60(TB) leukemia
# OVCAR-4 ovarian = system: OVCAR-4 ovarian
# OVCAR-3 ovarian = system: OVCAR-3 ovarian
# KM12 colon = system: KM12 colon
# RPMI-8226 leukemia = system: RPMI-8226 leukemia
# MDA-MB-435 = system: MDA-MB-435
# 786-0 renal = system: 786-0 renal
# SK-MEL-2 melanoma = system: SK-MEL-2 melanoma
# UO-31 renal = system: UO-31 renal
# DU-145 prostate = system: DU-145 prostate
# NCI/ADR-RES ovarian = system: NCI/ADR-RES ovarian
# U251 CNS = system: U251 CNS
# NCI-H226 lung = system: NCI-H226 lung
# SR leukemia = system: SR leukemia
# HCC-2998 colon = system: HCC-2998 colon
# M14 melanoma = system: M14 melanoma
# SF-268 CNS = system: SF-268 CNS
# HCT-15 colon = system: HCT-15 colon
# HT29 colon = system: HT29 colon
# SN12C renal = system: SN12C renal
# PC-3 prostate = system: PC-3 prostate
# HOP-92 NSCLC = system: HOP-92 NSCLC
# T-47D breast = system: T-47D breast
# HCT-116 colon = system: HCT-116 colon
# SW-620 colon = system: SW-620 colon
# HOP-62 NSCLC = system: HOP-62 NSCLC
# CCRF-CEM leukemia = system: CCRF-CEM leukemia
# NCI-H460 lung = system: NCI-H460 lung
# UACC-62 melanoma = system: UACC-62 melanoma
# EKVX NSCLC = system: EKVX NSCLC
# K-562 leukemia = system: K-562 leukemia
# MDA-N = system: MDA-N
# SK-MEL-5 melanoma = system: SK-MEL-5 melanoma
# OVCAR-5 ovarian = system: OVCAR-5 ovarian
# NCI-H23 lung = system: NCI-H23 lung
# ACHN renal = system: ACHN renal
# COLO 205 colon = system: COLO 205 colon
# TK-10 renal = system: TK-10 renal
# SK-MEL-28 melanoma = system: SK-MEL-28 melanoma
# UACC-257 melanoma = system: UACC-257 melanoma
# NCI-H522 lung = system: NCI-H522 lung
# MALME-3M melanoma = system: MALME-3M melanoma
# MDA-MB-231 breast = system: MDA-MB-231 breast
# MOLT-4 leukemia = system: MOLT-4 leukemia
# SNB-19 CNS = system: SNB-19 CNS
# SF-539 CNS = system: SF-539 CNS
# LOX IMVI melanoma = system: LOX IMVI melanoma
# IGROV1 ovarian = system: IGROV1 ovarian
# RXF 393 renal = system: RXF 393 renal
# SF-295 CNS = system: SF-295 CNS
# A498 renal = system: A498 renal
# CAKI-1 renal = system: CAKI-1 renal
# SNB-75 CNS = system: SNB-75 CNS
# BT-549 breast = system: BT-549 breast
compound,measurement,setting,value
CNC(=O)O/N=C1\N(C)CN(c2ccccc2)C12CCN(CCCC(=O)c1ccc(F)cc1)CC2,TGI,HS 578T breast,> 100 µM
same,TGI,A549 NSCLC,> 100 µM
same,TGI,SK-OV-3 ovarian,> 100 µM
same,TGI,MCF7 breast,> 100 µM
same,TGI,OVCAR-8 ovarian,> 100 µM
same,TGI,HL-60(TB) leukemia,> 100 µM
same,TGI,OVCAR-4 ovarian,> 100 µM
same,TGI,OVCAR-3 ovarian,> 100 µM
same,TGI,KM12 colon,81.7 µM
same,TGI,RPMI-8226 leukemia,> 100 µM
same,TGI,MDA-MB-435,> 100 µM
same,TGI,786-0 renal,> 100 µM
same,TGI,SK-MEL-2 melanoma,> 100 µM
same,TGI,UO-31 renal,> 100 µM
same,TGI,DU-145 prostate,> 100 µM
same,TGI,NCI/ADR-RES ovarian,> 100 µM
same,TGI,U251 CNS,> 100 µM
same,TGI,NCI-H226 lung,> 100 µM
same,TGI,SR leukemia,> 100 µM
same,TGI,HCC-2998 colon,> 100 µM
same,TGI,M14 melanoma,32.9 µM
same,TGI,SF-268 CNS,> 100 µM
same,TGI,HCT-15 colon,> 100 µM
same,TGI,HT29 colon,> 100 µM
same,TGI,SN12C renal,> 100 µM
same,TGI,PC-3 prostate,> 100 µM
same,TGI,HOP-92 NSCLC,> 100 µM
same,TGI,T-47D breast,> 100 µM
same,TGI,HCT-116 colon,> 100 µM
same,TGI,SW-620 colon,> 100 µM
same,TGI,HOP-62 NSCLC,> 100 µM
same,TGI,CCRF-CEM leukemia,> 100 µM
same,TGI,NCI-H460 lung,> 100 µM
same,TGI,UACC-62 melanoma,> 100 µM
same,TGI,EKVX NSCLC,> 100 µM
same,TGI,K-562 leukemia,> 100 µM
same,TGI,MDA-N,> 100 µM
same,TGI,SK-MEL-5 melanoma,33 µM
same,TGI,OVCAR-5 ovarian,> 100 µM
same,TGI,NCI-H23 lung,> 100 µM
same,TGI,ACHN renal,> 100 µM
same,TGI,COLO 205 colon,33.2 µM
same,TGI,TK-10 renal,> 100 µM
same,TGI,SK-MEL-28 melanoma,> 100 µM
same,TGI,UACC-257 melanoma,35.4 µM
same,TGI,NCI-H522 lung,> 100 µM
same,TGI,MALME-3M melanoma,90.8 µM
same,TGI,MDA-MB-231 breast,> 100 µM
same,TGI,MOLT-4 leukemia,> 100 µM
same,TGI,SNB-19 CNS,> 100 µM
same,TGI,SF-539 CNS,> 100 µM
same,TGI,LOX IMVI melanoma,> 100 µM
same,TGI,IGROV1 ovarian,> 100 µM
same,TGI,RXF 393 renal,> 100 µM
same,TGI,SF-295 CNS,> 100 µM
same,TGI,A498 renal,> 100 µM
same,TGI,CAKI-1 renal,> 100 µM
same,TGI,SNB-75 CNS,24.3 µM
C/C(=C\[Si](C)(C)c1ccco1)C(C)(O)[C@H](C)O (stereo not given in full),TGI,HS 578T breast,> 100 µM
same,TGI,A549 NSCLC,> 100 µM
same,TGI,SK-OV-3 ovarian,> 100 µM
same,TGI,MCF7 breast,> 100 µM
same,TGI,OVCAR-8 ovarian,> 100 µM
same,TGI,HL-60(TB) leukemia,> 100 µM
same,TGI,OVCAR-4 ovarian,12.8 µM
same,TGI,OVCAR-3 ovarian,> 100 µM
same,TGI,KM12 colon,> 100 µM
same,TGI,RPMI-8226 leukemia,> 100 µM
same,TGI,MDA-MB-435,> 100 µM
same,TGI,786-0 renal,> 100 µM
same,TGI,SK-MEL-2 melanoma,> 100 µM
same,TGI,DU-145 prostate,> 100 µM
same,TGI,NCI/ADR-RES ovarian,> 100 µM
same,TGI,U251 CNS,> 100 µM
same,TGI,NCI-H226 lung,> 100 µM
same,TGI,SR leukemia,> 100 µM
same,TGI,HCC-2998 colon,> 100 µM
same,TGI,M14 melanoma,> 100 µM
same,TGI,SF-268 CNS,> 100 µM
same,TGI,HCT-15 colon,> 100 µM
same,TGI,HT29 colon,> 100 µM
same,TGI,SN12C renal,> 100 µM
same,TGI,PC-3 prostate,> 100 µM
same,TGI,HOP-92 NSCLC,> 100 µM
same,TGI,T-47D breast,54.2 µM
same,TGI,HCT-116 colon,> 100 µM
same,TGI,SW-620 colon,> 100 µM
same,TGI,HOP-62 NSCLC,> 100 µM
same,TGI,CCRF-CEM leukemia,> 100 µM
same,TGI,NCI-H460 lung,> 100 µM
same,TGI,UACC-62 melanoma,> 100 µM
same,TGI,EKVX NSCLC,> 100 µM
same,TGI,K-562 leukemia,> 100 µM
same,TGI,MDA-N,> 100 µM
same,TGI,SK-MEL-5 melanoma,> 100 µM
same,TGI,OVCAR-5 ovarian,> 100 µM
same,TGI,NCI-H23 lung,86.4 µM
same,TGI,ACHN renal,> 100 µM
same,TGI,COLO 205 colon,> 100 µM
same,TGI,TK-10 renal,> 100 µM
same,TGI,SK-MEL-28 melanoma,> 100 µM
same,TGI,UACC-257 melanoma,96.3 µM
same,TGI,NCI-H522 lung,74.4 µM
same,TGI,MALME-3M melanoma,> 100 µM
same,TGI,MDA-MB-231 breast,> 100 µM
same,TGI,MOLT-4 leukemia,> 100 µM
same,TGI,SNB-19 CNS,> 100 µM
same,TGI,SF-539 CNS,> 100 µM
same,TGI,LOX IMVI melanoma,> 100 µM
same,TGI,IGROV1 ovarian,> 100 µM
same,TGI,SF-295 CNS,> 100 µM
same,TGI,A498 renal,> 100 µM
same,TGI,CAKI-1 renal,> 100 µM
CCC1(c2ccc(OC)c(OC)c2)CCN(S(=O)(=O)c2ccc(C)cc2)C1 (stereo not given),TGI,A549 NSCLC,> 100 µM
same,TGI,SK-OV-3 ovarian,> 100 µM
same,TGI,MCF7 breast,> 100 µM
same,TGI,OVCAR-4 ovarian,> 100 µM
same,TGI,OVCAR-3 ovarian,> 100 µM
same,TGI,KM12 colon,> 100 µM
same,TGI,MDA-MB-435,> 100 µM
same,TGI,786-0 renal,> 100 µM
same,TGI,SK-MEL-2 melanoma,> 100 µM
same,TGI,UO-31 renal,> 100 µM
same,TGI,DU-145 prostate,> 100 µM
same,TGI,NCI/ADR-RES ovarian,> 100 µM
same,TGI,U251 CNS,> 100 µM
same,TGI,NCI-H226 lung,> 100 µM
same,TGI,SR leukemia,> 10 µM
same,TGI,HCC-2998 colon,> 100 µM
same,TGI,M14 melanoma,> 100 µM
same,TGI,SF-268 CNS,> 100 µM
same,TGI,HCT-15 colon,> 100 µM
same,TGI,HT29 colon,> 100 µM
same,TGI,SN12C renal,> 100 µM
same,TGI,PC-3 prostate,> 100 µM
same,TGI,T-47D breast,> 100 µM
same,TGI,HCT-116 colon,> 100 µM
same,TGI,SW-620 colon,> 100 µM
same,TGI,HOP-62 NSCLC,> 100 µM
same,TGI,BT-549 breast,> 100 µM
same,TGI,CCRF-CEM leukemia,> 100 µM
same,TGI,NCI-H460 lung,> 100 µM
same,TGI,UACC-62 melanoma,> 100 µM
same,TGI,EKVX NSCLC,> 100 µM
same,TGI,K-562 leukemia,> 10 µM
same,TGI,MDA-N,> 100 µM
same,TGI,SK-MEL-5 melanoma,> 100 µM
same,TGI,OVCAR-5 ovarian,> 100 µM
same,TGI,NCI-H23 lung,> 100 µM
same,TGI,ACHN renal,> 100 µM
same,TGI,COLO 205 colon,> 100 µM
same,TGI,TK-10 renal,> 100 µM
same,TGI,SK-MEL-28 melanoma,> 10 µM
same,TGI,UACC-257 melanoma,> 100 µM
same,TGI,NCI-H522 lung,> 100 µM
same,TGI,MDA-MB-231 breast,> 100 µM
same,TGI,MOLT-4 leukemia,64.1 µM
same,TGI,SNB-19 CNS,> 100 µM
same,TGI,SF-539 CNS,> 100 µM
same,TGI,LOX IMVI melanoma,> 100 µM
same,TGI,IGROV1 ovarian,> 100 µM
same,TGI,RXF 393 renal,> 100 µM
same,TGI,SF-295 CNS,> 100 µM
same,TGI,CAKI-1 renal,> 100 µM
same,TGI,SNB-75 CNS,> 100 µM
